Measurements as given in patent publication US20250082716A1, “REPRESSED ANG 1-7 IN COVID-19 IS INVERSELY ASSOCIATED WITH INFLAMMATION AND COAGULATION” (priority 2021, published 2025).
Like-named read-outs stand apart in the source and are kept apart here.

Test system: SARS-CoV-2 South African variant
Assay type: in vivo, LVG Golden Syrian male hamsters

Compound	daily body weights expressed as the percentage of starting body weight (hamster, in vivo)	daily body weights expressed as the percentage of starting body weight (pump implant delivering angiotensin 1-7 at 12 mg/kg/day, started the day after inoculation with 500,000 PFU, n=3)
CCNC(=O)NS(=O)(=O)c1sc(CC(C)C)cc1-c1ccc(Cn2c(-c3ccccc3)nc(OC)c2C=O)cc1 [AVE0991, N-(Ethylcarbamoyl)-3-(4-((5-formyl-4-methoxy-2-phenyl-1H-imidazol-1-YL)methyl)phenyl)-5-isobutylthiophene-2-sulfonamide]	continued to gain weight through the entire course of infection	–
Asp-Arg-Val-Tyr-Ile-His-Pro (DRVYIHP; printed: Asp-Arg-Val-Tyr-Ile-His-Pro) [angiotensin 1-7]	–	continued to gain weight through the entire course of infection
